Reference: PubChem BioAssay AID2418 (NMMLSC, 2010)
Activity calls are given as the source filed them.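 Rule for the calls: active = compounds reducing bradykinin-triggered filopodia by more than 10% inhibition at 10 microM; inactive = the rest.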

Test system: Swiss 3T3 bradykinin-induced filopodia, phalloidin imaging
Experiment: Cdc42-linked filopodia blockade in 3T3 fibroblasts – imaging, 3T3 cells, bradykinin stimulation, orthogonal assay for Ras-related GTPase inhibitor project (AID 2418)
Settings: at 10 µM; stronger effect = higher value

Compound	inhibition
COc1ccc(C2CC(c3ccccc3)=NN2c2ccc(S(N)(=O)=O)cc2)cc1 (stereo not drawn)	56%
Cc1cccc(C2CC(c3ccccc3)=NN2c2ccc(S(N)(=O)=O)cc2)c1 (stereo not drawn)	19%
Cc1ccc(C2CC(c3ccccc3)=NN2c2ccc(S(N)(=O)=O)cc2)cc1 (stereo not drawn)	-11% (inactive)
